Patent publication EP1283052A1, “Pharmaceutical composition containing caspase-8 and /or caspase-9 useful for overcoming glucocorticoid- and cancer therapy-induced apoptosis of tumours” (Deutsches Krebsforschungszentrum Stiftung des öffentlichen …, priority 2001, dated 2003)

Legend:
[1] = test system: apoptosome; experiment: Co-immunoprecipitation of apoptosome proteins with Apaf-1 in P5 cells; assay type: cell-based, human; details: carcinoma cells (P5), cisplatin, 24 h; Fig. 5b
Experimental: (§1) • (a) P693 and CEM cells were treated with cisplatin (2 µg/ml) in the absence or presence of DEX (1 µM) as indicated. 24 and 48 h following treatment cells were lysed and caspase-9 activity was determined using a fluorescent caspase-9 assay and spectroscopy. • (b) P5 and CEM cells were treated as described above. 24 h after stimulation Apaf-1 was immunoprecipitated from the cell extracts using a […]. Aliquotes of the precipitates were separated by three different gels and analysed by Western blotting using rabbit polyclonal Apaf-1, mAb cytochrome c or caspase-9 antibodies. The antibody heavy chain band (IgGH) ensures equal conditions. […]
(§2) • (A) Cell culture. […] The mice were given 0.28 mg/L DEX in drinking water, and the amount of water consumed was monitored. […] The tumour volumes were measured using callipers, and calculated using, as an approximation, the formula for volume of a hemi-ellipsoid: π(width^2 x length)/6. […] Early apoptotic changes were identified by staining of cells with fluoresceinthiocyanate (FITC)-conjugated annexin V and propidium iodide (Becton Dickinson, Heidelberg, Germany) and analysed by flow cytometry (FACScan, Becton Dickinson) as described (Herr et al., EMBO J. 16 (1997), 6200-6208) • (E) Immunohistochemistry. […] Bound antibodies were detected by FITC conjugated anti-mouse or anti-rabbit IgG (Molecular Probes Europe, Leiden, The Netherlands). […]

[2] = test system: caspase-9 and -6; experiment: Fluorometric caspase-6/9 activity assay in P693 cells; assay type: cell-based, human; details: cisplatin 2 µg/ml alone, Fig. 5a
Experimental: as §1, §2

`N.N.[Cl][Pt][Cl]` [cisplatin] was tested, and the “amounts of immunoprecipitated apoptosome members (APAF-1, caspase-9, cytochrome c)” value [1] was “strong induction in the amounts of APAF-1, caspase-9 and cytochrome c” and the caspase-6/9 activity [2] was “induced 24 h following cisplatin in P693 and CEM cells with increasing activity at 48 h”.
